A short description of experiment [1]: Cytotoxicity against human MCF7 cells assessed as reduction in cell viability after 96 hrs by MTT assay. It is filed as functional, cell-based. The settings on record: MCF7, 96 h. In general terms: Formazan colour is commonly taken as a measure of viable cells.
Experiment [2] deals with Human immunodeficiency virus 1. Briefly: Antiviral activity against VSV-G pseudotyped HIV1 infected in human SupT1 cells after 48 hrs by luciferase reporter gene assay. Conditions: Human immunodeficiency virus 1, SUP-T1, 48 h. Type of experiment: functional, cell-based. In general terms: In a reporter assay the amount or activity of a reporter protein is the signal.
The nature of experiment [3]: Cytotoxicity against human HeLa cells assessed as reduction in cell viability after 96 hrs by MTT assay. It is filed as functional, cell-based.
Experiment [4] in a line: Antiinflammatory activity in […] cells assessed as inhibition of LPS-induced NO production at 1 uM preincubated with compound followed by LPS stimulation after 24 hrs. It is filed as functional. Conditions: Mus musculus, BV-2.

Broadly, the IC50 is the concentration that gives 50% inhibition. Usually inhibition stands for the change of the read-out against control, counted positive when it falls.

For `C=C(C)[C@@]1(O)C[C@@]2(C)C(=C[C@@H]1O)C=CC(=O)[C@H]2C`, in experiment [1], the IC50 is 17.9 µM.

For `C[C@H]1C(=O)C=CC2=C[C@@H](O)[C@H](O)C[C@@]21C`, the IC50 amounted to 11 µM in experiment [2] and 16.5 µM in experiment [3].

With `C=C(C)[C@]1(O)C[C@@]2(C)C(=C[C@H]1O)C=CC(=O)[C@@H]2C`, the inhibition at 1 µM in experiment [4] was 10.2%.

As for `C=C(C)[C@@H]1C[C@@]2(C)C(=C[C@@H](O)[C@H](O)[C@@H]2C)[C@@H](O)[C@H]1O`, the inhibition at 1 µM in experiment [4] came out at 18.3%.

On to `C[C@@H]1C(=O)C=CC2=C[C@@H](O)[C@H](O)C[C@@]21C`, for which the inhibition at 1 µM in experiment [4] was found to be 16.1%.

In the case of `COc1cc(/C=C/C(=O)CC(=O)/C=C/c2ccc(O)c(OC)c2)ccc1O` [CURCUMIN], the inhibition at 1 µM in experiment [4] is 12.9%.

In the case of `CC(=O)O[C@H]1C(=O)[C@@]2(C)[C@H]([C@H](OC(=O)c3ccccc3)[C@]3(O)C[C@H](OC(=O)[C@H](O)[C@@H](NC(=O)c4ccccc4)c4ccccc4)C(C)=C1C3(C)C)[C@]1(OC(C)=O)CO[C@@H]1C[C@@H]2O` [PACLITAXEL], the IC50 turned out to be 0.0002 µM in experiment [1] and 0.0064 µM in experiment [3].
